Source: patent US11780830B2, “Triazolone derivatives or salts thereof and pharmaceutical compositions comprising the same” (YUHAN CORPORATION, priority 2018, dated 2023)
Structures can show the parent of a compound that is named as a salt.

Key:
Assay type in all cases: biochemical
[1] = biological target: T1, recombinant human VAP-1 (Homo sapiens, UniProt Q16853); experiment: Activity on recombinant human VAP-1, HRP-coupled Amplex Red hydrogen peroxide assay; conditions: substrate 1 mM benzylamine; compound incubated with enzyme at 37° C. for 30 minutes; pH 7.4; read-out: Inhibitory Activity (IC50, nM) human VAP-1
T1 construct: purchased R&D systems
T1 sequence (Q16853 1-763): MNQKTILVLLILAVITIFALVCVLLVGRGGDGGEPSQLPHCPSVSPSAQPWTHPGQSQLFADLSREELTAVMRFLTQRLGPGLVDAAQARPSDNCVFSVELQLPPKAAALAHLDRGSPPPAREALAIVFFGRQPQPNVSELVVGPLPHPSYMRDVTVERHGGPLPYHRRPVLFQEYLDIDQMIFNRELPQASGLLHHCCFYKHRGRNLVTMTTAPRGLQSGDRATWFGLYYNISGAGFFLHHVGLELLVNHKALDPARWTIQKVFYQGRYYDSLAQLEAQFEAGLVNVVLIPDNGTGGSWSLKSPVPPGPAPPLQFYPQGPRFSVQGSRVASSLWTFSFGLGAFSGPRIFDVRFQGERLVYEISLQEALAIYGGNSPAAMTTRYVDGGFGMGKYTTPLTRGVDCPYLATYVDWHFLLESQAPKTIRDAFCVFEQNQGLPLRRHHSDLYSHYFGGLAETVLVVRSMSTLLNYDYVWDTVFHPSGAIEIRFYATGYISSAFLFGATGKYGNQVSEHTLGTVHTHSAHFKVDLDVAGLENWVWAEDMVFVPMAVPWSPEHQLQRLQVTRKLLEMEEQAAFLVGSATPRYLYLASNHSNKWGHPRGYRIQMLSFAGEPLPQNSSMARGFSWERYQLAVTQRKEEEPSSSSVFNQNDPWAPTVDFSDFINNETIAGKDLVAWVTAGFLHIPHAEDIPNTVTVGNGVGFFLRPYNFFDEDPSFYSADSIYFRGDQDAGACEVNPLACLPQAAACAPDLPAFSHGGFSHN
Method in brief: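 Compounds were preincubated with purified enzyme in 50 mM sodium phosphate pH 7.4 at 37 °C for 30 min, then 200 uM Amplex Red, 1 mM benzylamine and 1 U/mL HRP were added. Resorufin fluorescence (ex 544/em 590 nm) was followed over 1-2 h; IC50 came from 4-parameter fits of signal-rate inhibition.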

[2] = biological target: T2, recombinant human MAO-A (monoamine oxidase-A) (Homo sapiens, UniProt P21397); experiment: Activity on recombinant human MAO-A, method similar to the VAP-1 assay; conditions: substrate 0.5 mM tyramine; read-out: Inhibitory Activity (IC50, nM) MAO-A
T2 construct: purchased Sigma-Aldrich
T2 sequence (P21397 1-527): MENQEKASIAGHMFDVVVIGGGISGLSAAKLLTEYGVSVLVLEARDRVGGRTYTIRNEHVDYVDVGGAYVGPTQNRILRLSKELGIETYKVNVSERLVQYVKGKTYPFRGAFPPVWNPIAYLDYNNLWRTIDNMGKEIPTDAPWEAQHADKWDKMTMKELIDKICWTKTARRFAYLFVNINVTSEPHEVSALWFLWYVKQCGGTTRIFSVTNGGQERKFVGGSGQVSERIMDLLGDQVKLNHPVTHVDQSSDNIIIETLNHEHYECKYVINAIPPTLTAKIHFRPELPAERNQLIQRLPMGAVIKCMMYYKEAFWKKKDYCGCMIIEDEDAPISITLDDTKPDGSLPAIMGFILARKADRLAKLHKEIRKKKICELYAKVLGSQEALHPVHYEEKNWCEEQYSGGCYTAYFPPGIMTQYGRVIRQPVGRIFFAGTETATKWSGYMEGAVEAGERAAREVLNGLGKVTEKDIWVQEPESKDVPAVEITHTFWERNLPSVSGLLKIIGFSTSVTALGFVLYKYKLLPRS
Method in brief: (§1)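 8-point, 1:3 dose-response, four-parameter logistic IC50 from reduction in fluorescence rate versus DMSO control. HRP/Amplex Red detection of H2O2 (ex 544, em 590 nm) after 30 min, 37 °C compound–enzyme preincubation in pH 7.4 phosphate buffer. MAO-A substrate: 0.5 mM tyramine; MAO-B: 1 mM benzylamine.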

[3] = biological target: T3, recombinant human MAO-B (monoamine oxidase-B) (Homo sapiens, UniProt P27338); experiment: Activity on recombinant human MAO-B, method similar to the VAP-1 assay; conditions: substrate 1 mM benzylamine; read-out: Inhibitory Activity (IC50, nM) MAO-B
T3 construct: purchased Sigma-Aldrich
T3 sequence (P27338 1-520): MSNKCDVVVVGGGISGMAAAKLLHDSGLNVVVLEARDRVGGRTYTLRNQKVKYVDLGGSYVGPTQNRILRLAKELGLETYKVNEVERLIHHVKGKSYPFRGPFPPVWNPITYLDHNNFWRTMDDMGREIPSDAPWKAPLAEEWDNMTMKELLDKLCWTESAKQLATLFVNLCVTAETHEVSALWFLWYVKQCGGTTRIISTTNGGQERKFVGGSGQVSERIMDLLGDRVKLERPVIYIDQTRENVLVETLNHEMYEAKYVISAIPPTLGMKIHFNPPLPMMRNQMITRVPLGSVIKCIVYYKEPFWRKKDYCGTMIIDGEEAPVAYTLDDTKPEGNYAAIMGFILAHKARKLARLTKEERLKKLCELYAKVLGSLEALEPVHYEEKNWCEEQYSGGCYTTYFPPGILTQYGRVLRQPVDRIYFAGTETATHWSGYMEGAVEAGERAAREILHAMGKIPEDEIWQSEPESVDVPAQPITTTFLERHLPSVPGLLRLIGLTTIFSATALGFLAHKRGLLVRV
Method in brief: as §1

[4] = biological target: T4, recombinant human DAO (diamine oxidase) (Homo sapiens, UniProt P19801); experiment: Activity on recombinant human DAO, method similar to the VAP-1 assay; conditions: substrate 1 mM putrescine; read-out: Inhibitory Activity (IC50, nM) DAO
T4 construct: purchased R&D systems
T4 sequence (P19801 20-751): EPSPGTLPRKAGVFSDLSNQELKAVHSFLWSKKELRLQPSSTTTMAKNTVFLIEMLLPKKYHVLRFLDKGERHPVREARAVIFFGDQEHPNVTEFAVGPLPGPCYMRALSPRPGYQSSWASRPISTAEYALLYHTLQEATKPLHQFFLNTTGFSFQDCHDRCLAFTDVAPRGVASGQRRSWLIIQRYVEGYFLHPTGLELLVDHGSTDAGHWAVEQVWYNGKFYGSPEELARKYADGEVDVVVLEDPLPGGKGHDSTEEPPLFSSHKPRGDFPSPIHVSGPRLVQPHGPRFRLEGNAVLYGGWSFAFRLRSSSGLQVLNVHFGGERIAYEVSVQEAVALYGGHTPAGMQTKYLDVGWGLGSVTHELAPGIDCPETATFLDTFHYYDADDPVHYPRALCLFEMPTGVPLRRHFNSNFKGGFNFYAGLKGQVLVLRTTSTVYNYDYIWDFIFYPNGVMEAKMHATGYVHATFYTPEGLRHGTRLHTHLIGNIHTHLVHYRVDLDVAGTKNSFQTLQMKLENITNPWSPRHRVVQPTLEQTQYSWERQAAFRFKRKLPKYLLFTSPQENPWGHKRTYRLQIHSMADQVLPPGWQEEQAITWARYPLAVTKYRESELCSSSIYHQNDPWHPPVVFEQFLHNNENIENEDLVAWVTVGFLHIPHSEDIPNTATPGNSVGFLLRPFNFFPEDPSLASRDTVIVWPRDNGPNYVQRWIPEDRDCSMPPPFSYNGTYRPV
Method in brief: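 Inhibition of recombinant human diamine oxidase (DAO, R&D systems) was assessed by the same approach as the VAP-1 assay, using 1 mM putrescine as substrate. Hydrogen peroxide formed was detected through an HRP-coupled Amplex Red reaction yielding fluorescent resorufin, read at 544 nm excitation and 590 nm emission. IC50 values came from four-parameter logistic fitting in GraphPad Prism.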

Row | IC50 [1] [nM] | IC50 [2] [nM] | IC50 [3] [nM] | IC50 [4] [nM] | SMILES
1 | 0.5 | > 100000 | 200 | 120 | NC/C(=C\F)Cn1ncn(Cc2ccc(-c3cccc(S(=O)(=O)N4CCCC4)c3)s2)c1=O [Example 28, 2-[(2E)-2-(aminomethyl)-3-fluoroprop-2-en-1-yl]-4-(5-[3-(pyrrolidin-1-ylsulfonyl)phenyl]thiophen-2-ylmethyl)-2,4-dihydro-3H-1,2,4-triazol-3-one hydrochloride]
2 | 1.4 | > 100000 | > 10000 | 150 | NC/C(=C\F)Cn1ncn(Cc2ccc(-c3ccc(S(=O)(=O)N4CCOCC4)cc3)s2)c1=O [Example 29, 2-[(2E)-2-(aminomethyl)-3-fluoroprop-2-en-1-yl]-4-(5-[4-(morpholin-4-ylsulfonyl)phenyl]thiophen-2-ylmethyl)-2,4-dihydro-3H-1,2,4-triazol-3-one hydrochloride]
3 | 0.67 | > 100000 | 73 | 120 | NC/C(=C\F)Cn1ncn(Cc2ccc(-c3ccc(-c4nnc[nH]4)cc3)s2)c1=O [Example 31, 2-[(2E)-2-(aminomethyl)-3-fluoroprop-2-en-1-yl]-4-(5-[4-(4H-1,2,4-triazol-3-yl)phenyl]thiophen-2-ylmethyl)-2,4-dihydro-3H-1,2,4-triazol-3-one]
4 | 0.8 | > 100000 | 600 | 790 | NC/C(=C\F)Cn1ncn(Cc2ccc(-c3cccc(-c4nnc[nH]4)c3)s2)c1=O [Example 33, 2-[(2E)-2-(aminomethyl)-3-fluoroprop-2-en-1-yl]-4-(5-[3-(4H-1,2,4-triazol-3-yl)phenyl]thiophen-2-ylmethyl)-2,4-dihydro-3H-1,2,4-triazol-3-one]
5 | 2 | > 100000 | 116 | 660 | NC/C(=C\F)Cn1ncn(Cc2ccc(-c3cccc(-c4ncon4)c3)s2)c1=O [Example 34, 2-[(2E)-2-(aminomethyl)-3-fluoroprop-2-en-1-yl]-4-(5-[3-(1,2,4-oxadiazol-3-yl)phenyl]thiophen-2-ylmethyl)-2,4-dihydro-3H-1,2,4-triazol-3-one]
6 | 0.89 | 39600 | 247 | 67 | NC/C(=C\F)Cn1ncn(Cc2ccc(-c3ccc(-c4noc(C5CC5)n4)cc3)s2)c1=O [Example 35, 2-[(2E)-2-(aminomethyl)-3-fluoroprop-2-en-1-yl]-4-(5-[4-(5-cyclopropyl-1,2,4-oxadiazol-3-yl)phenyl]thiophen-2-ylmethyl)-2,4-dihydro-3H-1,2,4-triazol-3-one hydrochloride]
7 | 0.7 | > 100000 | 101 | 344 | NC/C(=C\F)Cn1ncn(Cc2ccc(-c3cccc(-c4noc(C5CC5)n4)c3)s2)c1=O [Example 36, 2-[(2E)-2-(aminomethyl)-3-fluoroprop-2-en-1-yl]-4-(5-[3-(5-cyclopropyl-1,2,4-oxadiazol-3-yl)phenyl]thiophen-2-ylmethyl)-2,4-dihydro-3H-1,2,4-triazol-3-one hydrochloride]
8 | 0.76 | 5590 | 590 | 120 | CC(C)c1nc(-c2ccc(-c3ccc(Cn4cnn(C/C(=C/F)CN)c4=O)s3)cc2)no1 [Example 37, 2-[(2E)-2-(aminomethyl)-3-fluoroprop-2-en-1-yl]-4-[(5-4-[5-(propan-2-yl)-1,2,4-oxadiazol-3-yl]phenylthiophen-2-yl)methyl]-2,4-dihydro-3H-1,2,4-triazol-3-one hydrochloride]
9 | 2.8 | 7900 | 1030 | 2400 | CC(C)c1nc(-c2cccc(-c3ccc(Cn4cnn(C/C(=C/F)CN)c4=O)s3)c2)no1 [Example 38, 2-[(2E)-2-(aminomethyl)-3-fluoroprop-2-en-1-yl]-4-[(5-3-[5-(propan-2-yl)-1,2,4-oxadiazol-3-yl]phenylthiophen-2-yl)methyl]-2,4-dihydro-3H-1,2,4-triazol-3-one hydrochloride]
10 | 0.6 | > 100000 | 110 | 370 | NC/C(=C\F)Cn1ncn(Cc2ccc(-c3ccc(-c4ccon4)cc3)s2)c1=O [Example 40, 2-[(2E)-2-(aminomethyl)-3-fluoroprop-2-en-1-yl]-4-(5-[4-(1,2-oxazol-3-yl)phenyl]thiophen-2-ylmethyl)-2,4-dihydro-3H-1,2,4-triazol-3-one hydrochloride]
11 | 0.7 | > 100000 | 5100 | 570 | CN(C)c1ccc(-c2ccc(Cn3cnn(C/C(=C/F)CN)c3=O)s2)cn1 [Example 42, 2-[(2E)-2-(aminomethyl)-3-fluoroprop-2-en-1-yl]-4-(5-[6-(dimethylamino)pyridin-3-yl]thiophen-2-ylmethyl)-2,4-dihydro-3H-1,2,4-triazol-3-one hydrochloride]
